Assay results: publication PMC5867665, “Targeting Multiple Effector Pathways in Pancreatic Ductal Adenocarcinoma with a G-Quadruplex-Binding Small Molecule” (Journal of Medicinal Chemistry, 2018)

Tested on: DNA human telomeric G4 sequence 5′-d(GGGTTAGGGTTAGGGTTAGGG)-3′
Test: Quantitative G4 binding (fluorescence anisotropy and direct fluorescence titrations)
Experimental: Quantitative binding estimates as KD values were obtained from fluorescence anisotropy titrations (MM41) and direct fluorescence titrations (CM03). The DNA human telomeric G4 sequence 5′-d([…])-3′ was used to enable direct comparisons to be made with the modeling studies. Both compounds bind with nanomolar affinity to this DNA G4, with a ∼3-fold difference between MM41 (20 ± 2 nM) and CM03 (67 ± 4 nM).
Human telomeric DNA G4 was prepared using oligonucleotides purchased from Integrated DNA Technologies (Coralville, IA, USA). The DNA purity and sequence was verified by mass spectrometry. Desalted oligonucleotide sequences were initially suspended in 150 mM NH4OAc (pH 6.8) in nuclease-free water to yield a final concentration of 1 mM and determined spectroscopically at 260 nm using the nearest-neighbor method. […]
Fluorescence anisotropy measurements were obtained on a Variant Cary Eclipse fluorescence spectrophotometer (Agilent Technologies, Santa Clara, CA, USA) equipped with a polarization attachment. […]
To determine dissociation constants, MM41 was added to a 3 mL volume of the experimental buffer (50 mM KCl, 10 mM Tris-HCl, 1 mM EDTA in nuclease-free water at 25 °C, pH 7.3) in a quartz fluorescence cuvette at a fixed concentration of 50 nM, and G4 was titrated into the cuvette. […] Each set of measurements were taken from a 50 s average reading measurement (PMT = 630 V). […]

SMILES: O=C1c2ccc3c4c(c(NCCN5CCCC5)cc(c24)C(=O)N1CCCN1CCOCC1)C(=O)N(CCCN1CCOCC1)C3=O [CM03, 2,7-bis(3-morpholinopropyl)-4-((2-(pyrrolidin-1-yl)ethyl)amino)benzo[lmn][3,8]phenanthroline-1,3,6,8(2H,7H)-tetraone]
- difference in KD between MM41 and CM03: ~3 fold
